Results from patent publication US20070093520A1, “Method of treatment of diarrhea-predominant irritable bowel syndrome in a subject” (priority 2005, published 2007).

Test system: diarrhea-predominant IBS subjects
Format: in vivo, human
Description: The study was performed in approximately 150 study centers. Approximately 1600 eligible subjects were to be given cilansetron 2 mg TID. At Visit 1, pre-treatment assessments were conducted. […] Subjects were to return to the study site one month later for Visit 3 (Day 31) for their first interim assessment. […] All subjects who discontinued from the study were to have the same post-study assessments required at Visit 7 performed at their early termination visit. […]
Stool specimens were analyzed at every visit for occult blood. An independent GERB had been established to provide advice on GI AEs during the course of the study.
Adverse events were assessed at Baseline, at each clinic visit, and at the end of the study (Month 12 or the early termination visit). All AEs, which occurred during the study were followed up in accordance with good medical practice until resolved or judged no longer clinically significant, or if a condition was chronic, until fully characterized. Adverse events could occur in the specified follow-up period and, regardless of the interval since the last administration of the study medication, were treated in the same manner as an AE which occurred during the treatment with study medication. Each AE was evaluated for duration, severity, seriousness, and causal relationship to the investigational drug. The action taken and the outcome were also recorded.
Specifically, subjects who were lost to follow-up and had no post-Baseline contact with the site were excluded from the Safety population. The subjects who discontinued from the study due to lost to follow-up were identified based on the information collected on the study termination CRF page.
After the pretreatment assessment at Visit 1 (Days […] to −3), subjects were to return to the study site for a Baseline assessment and start the treatment at Visit 2 (Day 1).
For the by time-interval analyses of disposition, prevalence of AEs, and of markedly abnormal and predefined changes in laboratory values, vital signs, and ECGs, the following interval windows were used:
Adverse events that were already present prior to the first dose of cilansetron study medication but increased in severity afterwards were considered as treatment-emergent.
The 5% cutoff point was based on the incidence within higher level terms.
Subjects were counted at most once for each primary system organ class and preferred term. Serious AEs that resolved prior to receiving study medication or occurred more than 30 days after the last dose of study medication were not included in the incidence tables. A listing of all SAEs is presented; SAEs with onset prior to receiving study medication or more than 30 days after discontinuation of study medication were flagged. The listing presents lower level term and preferred term of the SAE, severity, action taken, outcome, and relationship of the SAE, start and stop date of the SAE, study day of onset of the SAE, age, race, and sex.

[1] = 2 mg, Safety Population, 3008, system organ class
[2] = 2 mg, Safety Population, 3008, under Blood and Lymphatic System Disorders
[3] = 2 mg, Safety Population, 3008, under Congenital, Familial and Genetic Disorders
[4] = 2 mg, Safety Population, 3008, under Ear and Labyrinth Disorders
[5] = 2 mg, Safety Population, 3008, under Endocrine Disorders
[6] = 2 mg, Safety Population, 3008, under Eye Disorders
[7] = 2 mg, Safety Population, 3008, under Hepatobiliary Disorders
[8] = 2 mg, Safety Population, 3008, under Immune System Disorders
[9] = 2 mg, Safety Population, 3008, under Neoplasms Benign, Malignant and Unspecified

SMILES: Cc1nccn1C[C@H]1CCc2c(c3cccc4c3n2CCC4)C1=O [cilansetron, (R)-(−)-4,5,6,8,9,10-hexahydro-10-[(2-methyl-1H-imidazol-1-yl)methyl]-11H-pyrido-[3,2,1-jk]-carbazol-11-one]
- TEAE incidence: Influenza Viral Infections: 51 (4%) n (%)
- TEAE incidence: Scrotal Disorders NEC* (2 mg, Safety Population, 3008): 1 (<1%) n (%)
- TEAE incidence: Scrotal Swelling* (2 mg, Safety Population, 3008): 1 (<1%) n (%)
- TEAE incidence: Vaginal Haemorrhage* (2 mg, Safety Population, 3008): 1 (<1%) n (%)
- TEAE incidence: Vulvovaginal Disorders NEC* (2 mg, Safety Population, 3008): 1 (<1%) n (%)
- TEAE incidence: Blood and Lymphatic System Disorders [1]: 13 (<1%) n (%)
- TEAE incidence: Congenital, Familial and Genetic Disorders [1]: 3 (<1%) n (%)
- TEAE incidence: Ear and Labyrinth Disorders [1]: 22 (2%) n (%)
- TEAE incidence: Endocrine Disorders [1]: 7 (<1%) n (%)
- TEAE incidence: Eye Disorders [1]: 18 (1%) n (%)
- TEAE incidence: Hepatobiliary Disorders [1]: 13 (<1%) n (%)
- TEAE incidence: Immune System Disorders [1]: 23 (2%) n (%)
- TEAE incidence: Neoplasms Benign, Malignant and Unspecified (Incl Cysts and Polyps) [1]: 17 (1%) n (%)
- TEAE incidence: Pregnancy, Puerperium and Perinatal Conditions [1]: 2 (<1%) n (%)
- TEAE incidence: Social Circumstances [1]: 3 (<1%) n (%)
- TEAE incidence: Surgical and Medical Procedures [1]: 2 (<1%) n (%)
- TEAE incidence: Vascular Disorders [1]: 32 (2%) n (%)
- TEAE incidence: Anaemia Deficiencies [2]: 1 (<1%) n (%)
- TEAE incidence: Anaemia NOS [2]: 5 (<1%) n (%)
- TEAE incidence: Anaemia Vitamin B12 Deficiency [2]: 1 (<1%) n (%)
- TEAE incidence: Anaemias NEC [2]: 7 (<1%) n (%)
- TEAE incidence: Anisocytosis [2]: 1 (<1%) n (%)
- TEAE incidence: Eosinophilia [2]: 2 (<1%) n (%)
- TEAE incidence: Hypochromic Anaemia [2]: 1 (<1%) n (%)
- TEAE incidence: Leukocytoses NEC [2]: 4 (<1%) n (%)
- TEAE incidence: Leukocytosis [2]: 2 (<1%) n (%)
- TEAE incidence: Leukopenia NOS [2]: 2 (<1%) n (%)
- TEAE incidence: Leukopenias NEC [2]: 2 (<1%) n (%)
- TEAE incidence: Neutropenia [2]: 1 (<1%) n (%)
- TEAE incidence: Neutropenias [2]: 1 (<1%) n (%)
- TEAE incidence: Neutrophilia [2]: 2 (<1%) n (%)
- TEAE incidence: Normochromic Normocytic Anaemia [2]: 1 (<1%) n (%)
- TEAE incidence: Poikilocytosis [2]: 1 (<1%) n (%)
- TEAE incidence: Red Blood Cell Abnormal Findings NEC [2]: 1 (<1%) n (%)
- TEAE incidence: Secondary Thrombocythaemias [2]: 1 (<1%) n (%)
- TEAE incidence: Thrombocythaemia [2]: 1 (<1%) n (%)
- TEAE incidence: Congenital Claw Toe [3]: 1 (<1%) n (%)
- TEAE incidence: Musculoskeletal and Connective Tissue Disorders of Limbs Congenital [3]: 1 (<1%) n (%)
- TEAE incidence: Pigmented Naevus [3]: 2 (<1%) n (%)
- TEAE incidence: Skin and Subcutaneous Tissue Disorders Congenital NEC [3]: 2 (<1%) n (%)
- TEAE incidence: Ear Disorders NEC [4]: 3 (<1%) n (%)
- TEAE incidence: Ear Pain [4]: 3 (<1%) n (%)
- TEAE incidence: Hyperacusia [4]: 1 (<1%) n (%)
- TEAE incidence: Hyperacusis [4]: 1 (<1%) n (%)
- TEAE incidence: Inner Ear Disorder NOS [4]: 1 (<1%) n (%)
- TEAE incidence: Inner Ear Disorders NEC [4]: 1 (<1%) n (%)
- TEAE incidence: Inner Ear Signs and Symptoms [4]: 18 (1%) n (%)
- TEAE incidence: Tinnitus [4]: 8 (<1%) n (%)
- TEAE incidence: Vertigo [4]: 10 (<1%) n (%)
- TEAE incidence: Vertigo Positional [4]: 1 (<1%) n (%)
- TEAE incidence: Acquired Hypothyroidism [5]: 3 (<1%) n (%)
- TEAE incidence: Acute and Chronic Thyroiditis [5]: 1 (<1%) n (%)
- TEAE incidence: Goitre [5]: 2 (<1%) n (%)
- TEAE incidence: Thyroid Disorders NEC [5]: 2 (<1%) n (%)
- TEAE incidence: Thyroid Hyperfunction Disorders [5]: 2 (<1%) n (%)
- TEAE incidence: Thyroid Hypofunction Disorders [5]: 3 (<1%) n (%)
- TEAE incidence: Thyroid Neoplasms [5]: 1 (<1%) n (%)
- TEAE incidence: Thyroid Nodule [5]: 1 (<1%) n (%)
- TEAE incidence: Thyroiditis NOS [5]: 1 (<1%) n (%)
- TEAE incidence: Thyrotoxicosis [5]: 2 (<1%) n (%)
- TEAE incidence: Amaurosis Fugax [6]: 1 (<1%) n (%)
- TEAE incidence: Blindness (Excl Colour Blindness) [6]: 1 (<1%) n (%)
- TEAE incidence: Cataract Unilateral [6]: 1 (<1%) n (%)
- TEAE incidence: Cataracts (Excl Congenital) [6]: 1 (<1%) n (%)
- TEAE incidence: Conjunctival Haemorrhage [6]: 1 (<1%) n (%)
- TEAE incidence: Conjunctival and Corneal Bleeding and Vascular Disorders [6]: 1 (<1%) n (%)
- TEAE incidence: Conjunctivitis [6]: 1 (<1%) n (%)
- TEAE incidence: Dry Eye NOS [6]: 1 (<1%) n (%)
- TEAE incidence: Eye Irritation [6]: 1 (<1%) n (%)
- TEAE incidence: Eye Pain [6]: 2 (<1%) n (%)
- TEAE incidence: Eyelid Oedema [6]: 2 (<1%) n (%)
- TEAE incidence: Glaucoma NOS [6]: 1 (<1%) n (%)
- TEAE incidence: Glaucomas (Excl Congenital) [6]: 1 (<1%) n (%)
- TEAE incidence: Lacrimal Disorders [6]: 1 (<1%) n (%)
- TEAE incidence: Ocular Disorders NEC [6]: 2 (<1%) n (%)
- TEAE incidence: Ocular Sensation Disorders [6]: 1 (<1%) n (%)
- TEAE incidence: Partial Vision Loss [6]: 2 (<1%) n (%)
- TEAE incidence: Photophobia [6]: 1 (<1%) n (%)
- TEAE incidence: Retinal Bleeding and Vascular Disorders (Excl Retinopathy) [6]: 1 (<1%) n (%)
- TEAE incidence: Retinal Detachment [6]: 1 (<1%) n (%)
- TEAE incidence: Retinal Structural Change, Deposit and Degeneration [6]: 1 (<1%) n (%)
- TEAE incidence: Retinal Vascular Disorder NOS [6]: 1 (<1%) n (%)
- TEAE incidence: Retinitis NOS [6]: 1 (<1%) n (%)
- TEAE incidence: Vision Abnormal NOS Exacerbated [6]: 1 (<1%) n (%)
- TEAE incidence: Vision Blurred [6]: 1 (<1%) n (%)
- TEAE incidence: Visual Disorders NEC [6]: 3 (<1%) n (%)
- TEAE incidence: Visual Disturbance NOS [6]: 3 (<1%) n (%)
- TEAE incidence: Biliary Dyskinesia [7]: 1 (<1%) n (%)
- TEAE incidence: Cholecystitis NOS [7]: 2 (<1%) n (%)
- TEAE incidence: Cholecystitis and Cholelithiasis [7]: 3 (<1%) n (%)
- TEAE incidence: Cholelithiasis [7]: 1 (<1%) n (%)
- TEAE incidence: Cholestasis and Jaundice [7]: 1 (<1%) n (%)
- TEAE incidence: Gallbladder Disorders NEC [7]: 1 (<1%) n (%)
- TEAE incidence: Hepatic Cyst NOS [7]: 1 (<1%) n (%)
- TEAE incidence: Hepatic Disorder NOS [7]: 2 (<1%) n (%)
- TEAE incidence: Hepatic and Hepatobiliary Disorders NEC [7]: 2 (<1%) n (%)
- TEAE incidence: Hepatitis NOS [7]: 3 (<1%) n (%)
- TEAE incidence: Hepatobiliary Neoplasms Benign [7]: 1 (<1%) n (%)
- TEAE incidence: Hepatocellular Damage and Hepatitis NEC [7]: 5 (<1%) n (%)
- TEAE incidence: Jaundice Cholestatic [7]: 1 (<1%) n (%)
- TEAE incidence: Liver Fatty [7]: 2 (<1%) n (%)
- TEAE incidence: Allergic Conditions NEC [8]: 8 (<1%) n (%)
- TEAE incidence: Allergies to Foods, Food Additives, Drugs and Other Chemicals [8]: 3 (<1%) n (%)
- TEAE incidence: Atopic Disorders [8]: 12 (<1%) n (%)
- TEAE incidence: Drug Hypersensitivity [8]: 3 (<1%) n (%)
- TEAE incidence: Hypersensitivity NOS [8]: 7 (<1%) n (%)
- TEAE incidence: Seasonal Allergy [8]: 12 (<1%) n (%)
- TEAE incidence: Benign Ureteric Neoplasm NOS [9]: 1 (<1%) n (%)
- TEAE incidence: Bladder Neoplasm NOS [9]: 1 (<1%) n (%)
- TEAE incidence: Breast Cancer NOS* [9]: 1 (<1%) n (%)
- TEAE incidence: Breast and Nipple Neoplasms Malignant* [9]: 1 (<1%) n (%)
- TEAE incidence: Cartilage Neoplasms Benign [9]: 1 (<1%) n (%)
- TEAE incidence: Enchondromatosis [9]: 1 (<1%) n (%)
